The values that follow come from paper PMC11396803, “Synthesis of Tumor Selective Indole and 8-Hydroxyquinoline Skeleton Containing Di-, or Triarylmethanes with Improved Cytotoxic Activity” (Molecules, 2024).

Read-outs that look alike come from different tables or passages of the source.

Holding throughout (assay type): cell-based, human
For data set [1], the system named is Colo320/MDR-LRP colon adenocarcinoma cell line. Briefly: MTT cytotoxicity assay on doxorubicin-resistant, ABCB1- and LRP-expressing Colo320 cells. The conditions noted are these: for IC50: Homo sapiens, COLO 320; for IC50 / Cytotoxic effect on Colo320 cells (in words): MTT; for Cytotoxic effect on Colo320 cells (in words): up to 100 µM; for Selectivity index SI MRC-5/Colo320: ratio of IC50 in non-tumor MRC-5 cells and IC50 in Colo320. How it is done: (§1) The doxorubicin-sensitive Colo205 (ATCC-CCL-222) and the doxorubicin-resistant ABCB1- and LRP-expressing Colo320/MDR-LRP (ATCC-CCL-220.1) human colon adenocarcinoma cell lines were obtained from LGC Promochem in Teddington, UK. These cell lines were cultivated in RPMI 1640 medium supplemented with 10% heat-inactivated foetal bovine serum (FBS), 2 mM L-glutamine, 1 mM Na-pyruvate, 10 mM HEPES, along with nystatin, and gentamicin. The normal MRC-5 (ATCC CCL-171) human embryonic lung fibroblast cell line was purchased from Sigma-Aldrich (Merck KGaA, Darmstadt, Germany). The MRC-5 cells were cultured in EMEM medium, supplemented with 1% non-essential amino acid (NEAA) mixture, a selection of vitamins, 10% heat-inactivated FBS, 2 mM L-glutamine, 1 mM Na pyruvate, nystatin, and gentamicin. The cell lines were incubated in humidified atmosphere (5% CO2, 95% air) at 37 °C. The cells were detached with a Trypsin-Versene (EDTA) solution for 5 min at 37 °C.
(§2) The effects of increasing concentrations of the compounds on cell growth were tested in 96-well flat-bottomed microtiter plates. Namely, 1 × 10^4 of human colonic adenocarcinoma cells in 100 μL of the medium (RPMI 1640) were added to each well, except for the medium control wells. The adherent human embryonic lung fibroblast cell line was seeded in the EMEM medium for 24 h before the assay. The two-fold serial dilutions of the compounds were made in a separate plate (100–0.19 μM) and then transferred to the plates containing the cells. The starting concentration of the solvent DMSO was 2% v/v, and the highest concentration of the compounds in the plate was 100 μM. Plates were incubated at 37 °C for 24 h. At the end of the incubation, 20 μL of MTT (thiazolyl blue tetrazolium bromide) solution (from a 5 mg/mL stock solution) was added to each well. After incubation at 37 °C for 4 h, 100 μL of sodium dodecyl sulfate (SDS) solution (10% SDS in 0.01 M HCl) was added to each well, and the plates were further incubated at 37 °C overnight. Cell growth was determined by measuring the optical density (OD) at 540 nm (ref. 630 nm) with a Multiscan EX ELISA reader (Thermo Labsystems, Cheshire, WA, USA). Inhibition of cell growth was expressed as IC50 values, defined as the inhibitory dose that reduces the growth of the cells exposed to the tested compounds by 50%. IC50 values and the SD of triplicate and duplicate (in the case of MRC-5) experiments were calculated by using GraphPad Prism software version 5.00 for Windows, with a non-linear regression curve fit (GraphPad Software, San Diego, CA, USA; www.graphpad.com, accessed on 12 July 2021). Doxorubicin (from a 2 mg/mL stock solution, Teva Pharmaceuticals) was used as a positive control. […] The relative resistance (RR) was calculated as the ratio of the IC50 value in the resistant cancer cells and the IC50 value in the sensitive cancer cell lines. The selectivity indexes (SI) were calculated as the ratio of the IC50 value in the non-tumor cells and the IC50 value in the cancer cell lines. The activity of the compounds towards cancer cells is considered to be strongly selective if the selectivity index (SI) value is higher than 6, moderately selective if 3 < SI < 6, slightly selective if 1 < SI < 3, and non-selective if the SI is lower than 1 [22].

The test system of data set [2] is MRC-5 embryonic lung fibroblast cell line. The data set is described as follows: MTT cytotoxicity assay on normal MRC-5 fibroblasts. The conditions noted are these: for IC50: Homo sapiens; for Cytotoxic effect on normal MRC-5 cells (in words): up to 100 µM. Here is the method:
as §1, §2

Data set [3] concerns Colo205 colon adenocarcinoma cell line. The data set is described as follows: MTT cytotoxicity assay on doxorubicin-sensitive Colo205 cells. The conditions noted are these: for IC50: Homo sapiens, COLO 205; for IC50 / Cytotoxic effect on Colo205 cells (in words): MTT; for Cytotoxic effect on Colo205 cells (in words): up to 100 µM; for Selectivity index SI MRC-5/Colo205: ratio of IC50 in non-tumor MRC-5 cells and IC50 in Colo205. Here is the method: as §1, §2

Setting [4] is: 24 h incubation, average of 3 parallel experiments, read-out: IC50 Colo320 AV ± SD.
[5] abbreviates: MRC5, 24 h incubation, average of 2 parallel experiments, read-out: IC50 MRC-5 AV ± SD.
The mark [6] stands for this setting: 24 h incubation, average of 3 parallel experiments, read-out: IC50 Colo205 AV ± SD.
Where [7] appears, read: 24 h, single experiment, read-out: IC50 Colo320, parallel experiment 1.
[8] abbreviates: 24 h, single experiment, read-out: IC50 Colo320, parallel experiment 2.
Setting [9] is: 24 h, single experiment, read-out: IC50 Colo320, parallel experiment 3.
Where [10] appears, read: 24 h, single experiment, read-out: IC50 Colo205, parallel experiment 1.
Where [11] appears, read: 24 h, single experiment, read-out: IC50 Colo205, parallel experiment 2.
Setting [12] is: 24 h, single experiment, read-out: IC50 Colo205, parallel experiment 3.
Setting [13] is: MRC5, 24 h, single experiment, read-out: IC50 MRC-5, parallel experiment 1.
[14] abbreviates: MRC5, 24 h, single experiment, read-out: IC50 MRC-5, parallel experiment 2.

`O=C1Oc2ccc3ccccc3c2C1c1c[nH]c2ccccc12` (stereo not shown) [Compound 3, 1-(1H-indol-3-yl)naphtho[2,1-b]furan-2(1H)-one]: the IC50 in data set [1] (setting [4]), in data set [2] (setting [5]) and in data set [3] (setting [6]) was more than 100 µM each time. Besides, the “Cytotoxic effect on Colo320 cells (in words)” value in data set [1] is reported as “no effect”. For the same molecule, the “Cytotoxic effect on Colo205 cells (in words)” value in data set [3] is reported as “no effect”.

Regarding `CCOC(=O)C(c1ccc2ccccc2c1O)c1c[nH]c2ccccc12` (stereo not shown) [Compound 7, Ethyl 2-(1-hydroxynaphthalen-2-yl)-2-(1H-indol-3-yl)acetate], the IC50 was 53.8 µM in data set [1] (setting [7]); 54.9 µM in data set [1] (setting [8]); 52.2 µM in data set [1] (setting [9]); 53.6 ± 1.38 µM in data set [1] (setting [4]); more than 100 µM in data set [2] (setting [5]); more than 100 µM in data set [3] (setting [6]). In addition, in data set [3], the “Cytotoxic effect on Colo205 cells (in words)” value is on record as “no effect”.

Take `CCOC(=O)C(c1cc(Cl)c2cccnc2c1O)N1CCOCC1` (stereo not shown) [Compound 10, Ethyl 2-(5-chloro-8-hydroxyquinolin-7-yl)-2-morpholinoacetate]: the IC50 was 1.56 µM in data set [1] (setting [7]); 1.81 µM in data set [1] (setting [8]); 1.79 µM in data set [1] (setting [9]); 1.72 ± 0.14 µM in data set [1] (setting [4]); more than 100 µM in data set [2] (setting [5]); 2.07 µM in data set [3] (setting [10]). The values for the IC50 in data set [3] (setting [11]), in data set [3] (setting [12]) and in data set [3] (setting [6]) were 2.06 µM, 2.02 µM and 2.05 ± 0.02 µM, respectively. Further, the “Selectivity index SI MRC-5/Colo320” value in data set [1] was more than 6. Moreover, the “Cytotoxic effect on normal MRC-5 cells (in words)” value in data set [2] is recorded as “no toxicity”. Also, the “Selectivity index SI MRC-5/Colo205” value in data set [3] is given as more than 6.

In the case of `CCOC(=O)C(c1cc(Cl)c2cccnc2c1O)c1c[nH]c2ccccc12` (stereo not shown) [Compound 11, Ethyl 2-(5-chloro-8-hydroxyquinolin-7-yl)-2-(1H-indol-3-yl)acetate], the IC50 in data set [1] (setting [7]) turned out to be 4.64 µM; in data set [1] (setting [8]), 4.83 µM; in data set [1] (setting [9]), 4.96 µM; in data set [1] (setting [4]), 4.81 ± 0.16 µM; in data set [2] (setting [13]) it was 54.5 µM; in data set [2] (setting [14]), 55.1 µM. Further, the IC50 in data set [2] (setting [5]) was 54.77 ± 0.44 µM; in data set [3] (setting [10]) it was 5.51 µM; in data set [3] (setting [11]), 4.71 µM; in data set [3] (setting [12]) it was 4.42 µM; in data set [3] (setting [6]), 4.88 ± 0.56 µM. Further, the “Selectivity index SI MRC-5/Colo320” value in data set [1] was 11.4. Moreover, the “Cytotoxic effect on normal MRC-5 cells (in words)” value in data set [2] is “mild cytotoxic effect”. In addition, the “Selectivity index SI MRC-5/Colo205” value in data set [3] is 11.2.

Turning to `CCOC(=O)C(c1cc(Cl)c2cccnc2c1O)c1c[nH]c2ncccc12` (stereo not shown) [Compound 12, Ethyl 2-(5-chloro-8-hydroxyquinolin-7-yl)-2-(7-azaindole-3-yl)acetate], the IC50 in data set [1] (setting [7]) was determined as 5.16 µM; in data set [1] (setting [8]) it was 4.92 µM; in data set [1] (setting [9]), 5.11 µM; in data set [1] (setting [4]), 5.06 ± 0.12 µM; in data set [2] (setting [13]) it was 46.9 µM; in data set [2] (setting [14]) it was 45.6 µM. The half-maximal inhibitory concentration (IC50) in data set [2] (setting [5]) was found to be 46.2 ± 0.95 µM; in data set [3] (setting [10]), 8.05 µM; in data set [3] (setting [11]), 7.42 µM; in data set [3] (setting [12]) it was 8.84 µM; in data set [3] (setting [6]), 8.11 ± 0.71 µM. The “Selectivity index SI MRC-5/Colo320” value in data set [1] is given as 9.1. For the same molecule, in data set [2], the “Cytotoxic effect on normal MRC-5 cells (in words)” value is reported as “mild cytotoxic effect”. Further, the “Selectivity index SI MRC-5/Colo205” value in data set [3] is reported as 5.7.

Regarding `Oc1c(C(c2ccccc2)c2c[nH]c3ccccc23)cc(Cl)c2cccnc12` (stereo not shown) [Compound 14, 7-((1H-indol-3-yl)(phenyl)methyl)-5-chloroquinolin-8-ol], the IC50 in data set [1] (setting [7]) was 2.55 µM; in data set [1] (setting [8]), 2.84 µM; in data set [1] (setting [9]), 2.78 µM; in data set [1] (setting [4]), 2.72 ± 0.15 µM; in data set [2] (setting [13]), 30.1 µM; in data set [2] (setting [14]), 29.3 µM. Also, the IC50 in data set [2] (setting [5]) was 29.7 ± 0.57 µM; in data set [3] (setting [10]), 2.49 µM; in data set [3] (setting [11]), 2.49 µM; in data set [3] (setting [12]) it was 2.63 µM; in data set [3] (setting [6]), 2.53 ± 0.08 µM. In addition, the “Selectivity index SI MRC-5/Colo320” value in data set [1] is listed as 11. Also, the “Cytotoxic effect on normal MRC-5 cells (in words)” value in data set [2] is “mild cytotoxic effect”. The “Selectivity index SI MRC-5/Colo205” value in data set [3] amounted to 11.7.

Take `Oc1c(Cc2c[nH]c3ccccc23)cc(Cl)c2cccnc12` [Compound 16, 7-((1H-indol-3-yl)methyl)-5-chloroquinolin-8-ol]: the IC50 is 4.97 µM in data set [1] (setting [7]); 4.74 µM in data set [1] (setting [8]); 4.91 µM in data set [1] (setting [9]); 4.87 ± 0.12 µM in data set [1] (setting [4]); more than 100 µM in data set [2] (setting [5]); 13.6 µM in data set [3] (setting [10]). Moreover, the results for the IC50 in data set [3] (setting [11]), in data set [3] (setting [12]) and in data set [3] (setting [6]) were 13.4 µM, 12.3 µM and 13.1 ± 0.7 µM, respectively. Moreover, the “Cytotoxic effect on Colo320 cells (in words)” value in data set [1] was “potent toxic activity”. The “Selectivity index SI MRC-5/Colo320” value in data set [1] is recorded as more than 6. Moreover, in data set [2], the “Cytotoxic effect on normal MRC-5 cells (in words)” value is listed as “no toxicity”. Moreover, the “Selectivity index SI MRC-5/Colo205” value in data set [3] was more than 6.

For `Oc1c(Cc2c[nH]c3ncccc23)cc(Cl)c2cccnc12` [Compound 17, 7-((7-azaindole-3-yl)methyl)-5-chloroquinolin-8-ol], the IC50 was 23 µM in data set [1] (setting [7]); 21.9 µM in data set [1] (setting [8]); 22.5 µM in data set [1] (setting [9]); 22.5 ± 0.55 µM in data set [1] (setting [4]); more than 100 µM in data set [2] (setting [5]); 36.5 µM in data set [3] (setting [10]). Also, the IC50 in data set [3] (setting [11]) was found to be 39.4 µM; in data set [3] (setting [12]) it was 40.4 µM; in data set [3] (setting [6]), 38.8 ± 2.03 µM.

`COc1cccc2c1C(=O)c1c(O)c3c(c(O)c1C2=O)C[C@@](O)(C(=O)CO)C[C@@H]3O[C@H]1C[C@H](N)[C@H](O)[C@H](C)O1` [DOX, Doxorubicin, reference compound]: the half-inhibitory concentration (IC50) in data set [1] (setting [7]) is 3.12 µM; in data set [1] (setting [8]) it was 3.12 µM; in data set [1] (setting [9]) it was 2.96 µM; in data set [1] (setting [4]), 3.07 ± 0.09 µM; in data set [2] (setting [5]), more than 8.62 µM; in data set [3] (setting [10]), 0.84 µM. Besides, the IC50 in data set [3] (setting [11]) came out at 0.89 µM; in data set [3] (setting [12]) it was 0.81 µM; in data set [3] (setting [6]), 0.85 ± 0.04 µM.
